Reference: patent US20030166601A1, “Novel colloid synthetic vectors for gene therapy” (priority 1999, published 2003)

Assays:
[1] = test system: CD-1 mice; test: Luciferase expression in organs after intravenous injection of pCILuc complexes; assay type: in vivo; conditions: for Luciferase RLU/20 ul lysate heart / Luciferase RLU/20 ul lysate kidney / Luciferase RLU/20 ul lysate liver / Luciferase RLU/20 ul lysate lung / Luciferase RLU/20 ul lysate spleen: 40 μg pCILuc i.v., 5 h
Procedure: Substituted aminoethanols (cationic compounds) were prepared as described in Examples 1-34. Their gene delivery ability was studied in vivo by intravenous injection (Table 1 and 2) using a standard method. The preparations were administered via tail vein injection to mice and gene expression determined after 5 hours. Female CD-1 mice, 13-15 g, were purchased from Charles River Inc. Forty microgram of pCILuc complexed with GC lipids or GC lipid:Chol dispersion as indicated weight ratios. After 5 h, mice were sacrificed and organs were collected. Organs were homogenized in 0.5 ml of lysis buffer and 20 μl of supernatant was used for luciferase assay. Luciferase activity was represented as a mean of relative light unit (RLU) of four mice. The lipids were either used alone or combined with cholesterol and complexed with a luciferase reporter gene plasmid by a standard procedure at a range of weight and charge ratios. For the in vivo screen, 40 μg of pCILuc was complexed with the formulation and injected into the mice.
All compounds were evaluated for in vivo activity. Two critical factors were examined, formulation with or without cholesterol and the ratio of cationic lipid to DNA. Cholesterol was tested at 1:1 mole ratio of lipid:chol. The studies were performed with a dose of 40 μg of pCILuc complexed with cationic lipid or lipid: Chol (1:1 mole ratio) injected i.v. into CD-1 mice and then luciferase activity in different organs determined 5 h later. The first evaluation included all of 14 GC-lipids at weight ratios of 2 and 10 (GC lipid to DNA). It was performed by four separated experiments. Each time cationic liposome DOTAP:Chol was used as a standard control.
Measurements were repeated with lipids GC-030, GC-034 and GC-029 at wider weight ratios than the first experiment. Luciferase activity is represented as a mean of relative light unit (RLU) of four mice. WR means weight ratio of GC lipids to DNA. The transfection activity was represented by luciferase activity RLU/organ. […] The transfection activity increased with the increased weight ratio (GC lipids to DNA). Inclusion of cholesterol can change the biodistribution of gene expression in the different organs examined. […] However this function of cholesterol was not seen with GC-034.

[2] = test system: cultured cells; test: Transfection of cultured cells, luciferase activity; assay type: cell-based
Excerpt: The gene delivery ability of substituted aminoethanols with long chain hydrocarbon (aliphatic) substitutients was studied by transfection of cultured cells and then in vivo by intravenous injection (Table 2 and 3). The substituted aminoethanols have two hydrophilic polar heads connected with one hydrophobic body, which was named bihead lipids. Bihead lipids are proposed to form a monolayer membrane.

[3] = Zeta potential of substituted aminoethanol-DNA complexes; assay type: physicochemical; conditions: in mV (unit assumed)
Procedure: (§1) Substituted aminoethanols lacking long chain hydrocarbon (aliphatic) substitutients were used to compact plasmid DNA into a colloidal dispersion in water. The size and zeta potential of the colloidal dispersions prepared were determined at different charge ratios for added cation (amine) to anion (DNA phosphate) and are shown in Table 1 and FIG. 4. The colloidal dispersions prepared permit compaction of the DNA into core complexes that are suitable for the invention.

[4] = Particle size of substituted aminoethanol-DNA complexes; assay type: physicochemical
Excerpt: The component streams intersect in the mixer, whereby shearing and mixing of the DNA and polymer are induced, whereby particles of a complex of DNA and polymer are formed. The resulting preparations may be tested for mean particle size in nanometers and distribution through dynamic light scattering using, for example, a Coulter N4 Plus Submicron Particle Sizer (Coulter Corporation, Miami, Fla.). Mean particle sizes and standard deviaitons can be determined by the unimodal and Size Distribution Processing (SDP), or “intensity” methods.
In the above methods, a laser is directed through a preparation of the particles. Dynamic light scattering is measured as a result of the Brownian motion of the particles. The dynamic light scattering-which is measured then is correlated-to particle size. In the unimodal method, the size distribution is determined by placing the sizes of the particles on a Gaussian curve. In the SDP method, size distribution is determined by a FORTRAN program called CONTIN. Such methods also are described further in the Coulter N4 Plus Submicron Particle Sizer Reference Manual (November 1995).
as §1

[5] = test system: CHO (Sst2) cells; test: Transfection of CHO (Sst2) cells with peptide ligand complexes, luciferase; assay type: cell-based; conditions: polylysine core complexes; FIG. 26
Excerpt: K14RGD peptide containing the amino acid sequence: KKK KKK KKK KKK KKS CRG DC (SEQ ID NO:5) with at least 90% purity was synthesized at Alpha Diagnostic International (San Antonio, Tex.). Peptide K14SMT contains the amino acid sequence: KKK KKK KKK KKK KKA d-FCY d-WKT CT (SEQ ID NO:6), and peptide K14MST contains the amino acid sequence KKK KKK KKK KKK KKA TDC RGE CF (SEQ ID NO:7). Both SMT and MST peptides were synthesized at Genemed Synthesis Inc (CA, South San Francisco) and oxidized to make circularized peptide. The peptide was purified to 90% purity by the provider. CHO (Sst+) cell line was obtained from Novartis Oncology (Dr. Friedrich Raulf). The cell line was selected to stable express human somatostatin receptor Sst2.
10000 CHO (Sst2) cells were cultured in a serum-containing medium with 0.4 mg/ml G418 for 12 hr before transfection in each well of a 96 well plate. The medium was changed to a serum free medium before transfection. Peptide was added to the cell at indicated amounts from 1 ug to 10 ug/well and incubated for 30 min before 0.5 ug pCIluc2 was added to the same medium to transfect the cells. Lipofectin at 4 ul was used as the control.
At 24 hr, luciferase activity was measured with Promega luciferase assay kit according to the recommended procedure.

Compound: CCCCCCCCCCCCC(O)CN(CCCN)CCCCCCCCCCCCCN(CCCN)CC(O)CCCCCCCCCCCC (stereo not drawn) [CGP47204A]
- Luciferase RLU/20 ul lysate heart ([1]; CR 0.5): 38 RLU/20 ul lysate
- Luciferase RLU/20 ul lysate kidney ([1]; CR 0.5): 39 RLU/20 ul lysate
- Luciferase RLU/20 ul lysate liver ([1]; CR 0.5): 45 RLU/20 ul lysate
- Luciferase RLU/20 ul lysate lung ([1]; CR 0.5): 44 RLU/20 ul lysate
- Luciferase RLU/20 ul lysate spleen ([1]; CR 0.5): 80 RLU/20 ul lysate
- Luciferase RLU/20 ul lysate heart ([1]; CR 1): 41 RLU/20 ul lysate
- Luciferase RLU/20 ul lysate kidney ([1]; CR 1): 38 RLU/20 ul lysate
- Luciferase RLU/20 ul lysate liver ([1]; CR 1): 53 RLU/20 ul lysate
- Luciferase RLU/20 ul lysate lung ([1]; CR 1): 51 RLU/20 ul lysate
- Luciferase RLU/20 ul lysate spleen ([1]; CR 1): 467 RLU/20 ul lysate
- Luciferase RLU/20 ul lysate heart ([1]; CR 4): 129 RLU/20 ul lysate
- Luciferase RLU/20 ul lysate kidney ([1]; CR 4): 386 RLU/20 ul lysate
- Luciferase RLU/20 ul lysate liver ([1]; CR 4): 4,583 RLU/20 ul lysate
- Luciferase RLU/20 ul lysate lung ([1]; CR 4): 5,009 RLU/20 ul lysate
- Luciferase RLU/20 ul lysate spleen ([1]; CR 4): 5,594 RLU/20 ul lysate
- Luciferase RLU/20 ul lysate heart ([1]; CR 10): 983 RLU/20 ul lysate
- Luciferase RLU/20 ul lysate kidney ([1]; CR 10): 156 RLU/20 ul lysate
- Luciferase RLU/20 ul lysate liver ([1]; CR 10): 3,270 RLU/20 ul lysate
- Luciferase RLU/20 ul lysate lung ([1]; CR 10): 38,115 RLU/20 ul lysate
- Luciferase RLU/20 ul lysate spleen ([1]; CR 10): 6,378 RLU/20 ul lysate
- Luciferase RLU/20 ul lysate heart ([1]; CR 20): 96 RLU/20 ul lysate
- Luciferase RLU/20 ul lysate kidney ([1]; CR 20): 113 RLU/20 ul lysate
- Luciferase RLU/20 ul lysate liver ([1]; CR 20): 429 RLU/20 ul lysate
- Luciferase RLU/20 ul lysate lung ([1]; CR 20): 3,258 RLU/20 ul lysate
- Luciferase RLU/20 ul lysate spleen ([1]; CR 20): 779 RLU/20 ul lysate
- expression in vivo by core complexes ([1]; mouse, in vivo): exhibit expression in vivo
- Luciferase activity Ave. RLU × 10000/well FBS(+) ([2]; charge ratio (+/−) 0.5): 11 RLU × 10000/well
- Luciferase activity Ave. RLU × 10000/well FBS(−) ([2]; charge ratio (+/−) 0.5): 33 RLU × 10000/well
- Luciferase activity Ave. RLU × 10000/well FBS(+) ([2]; charge ratio (+/−) 1): 821 RLU × 10000/well
- Luciferase activity Ave. RLU × 10000/well FBS(−) ([2]; charge ratio (+/−) 1): 737 RLU × 10000/well
- Luciferase activity Ave. RLU × 10000/well FBS(+) ([2]; charge ratio (+/−) 2): 8,079 RLU × 10000/well
- Luciferase activity Ave. RLU × 10000/well FBS(−) ([2]; charge ratio (+/−) 2): 8,386 RLU × 10000/well
- Luciferase activity Ave. RLU × 10000/well FBS(+) ([2]; charge ratio (+/−) 4): 13,088 RLU × 10000/well
- Luciferase activity Ave. RLU × 10000/well FBS(−) ([2]; charge ratio (+/−) 4): 15,009 RLU × 10000/well
- Luciferase activity Ave. RLU × 10000/well FBS(+) ([2]; charge ratio (+/−) 6): 22,694 RLU × 10000/well
- Luciferase activity Ave. RLU × 10000/well FBS(−) ([2]; charge ratio (+/−) 6): 20,091 RLU × 10000/well
- Luciferase activity Ave. RLU × 10000/well FBS(+) ([2]; charge ratio (+/−) 8): 21,644 RLU × 10000/well
- Luciferase activity Ave. RLU × 10000/well FBS(−) ([2]; charge ratio (+/−) 8): 17,740 RLU × 10000/well

Compound: CCNCCCNCCCCNCCCNCC [CGP 41660A]
- Zeta Potential ([3]; charge ratio (+/−) 0.5): −40.9
- Zeta Potential ([3]; charge ratio (+/−) 1.0): −8.72
- Zeta Potential ([3]; charge ratio (+/−) 1.5): −7.67
- Zeta Potential ([3]; charge ratio (+/−) 2.0): −7.08
- Zeta Potential ([3]; charge ratio (+/−) 3.0): −5.03
- Zeta Potential ([3]; charge ratio (+/−) 4.0): −4.87
- Particle Size ([4]; charge ratio (+/−) 0.5): 136 nm
- Particle Size ([4]; charge ratio (+/−) 1.0): 62.6 nm
- Particle Size ([4]; charge ratio (+/−) 1.5): 93.4 nm
- Particle Size ([4]; charge ratio (+/−) 2.0): 573.5 nm
- Particle Size ([4]; charge ratio (+/−) 3.0): 987.4 nm
- Particle Size ([4]; charge ratio (+/−) 4.0): 4959 nm

Compound: C(CNCCC1CCCCN1)CNCCC1CCCCN1 (stereo not drawn) [CGP 61670A]
- Zeta Potential ([3]; charge ratio (+/−) 0.5): −17.6
- Zeta Potential ([3]; charge ratio (+/−) 1.0): −15.4
- Zeta Potential ([3]; charge ratio (+/−) 1.5): −9.1
- Zeta Potential ([3]; charge ratio (+/−) 2.0): −8.71
- Zeta Potential ([3]; charge ratio (+/−) 3.0): −6.01
- Zeta Potential ([3]; charge ratio (+/−) 4.0): −5.52
- Particle Size ([4]; charge ratio (+/−) 1.0): 77.6 nm
- Particle Size ([4]; charge ratio (+/−) 1.5): 192.4 nm
- Particle Size ([4]; charge ratio (+/−) 2.0): 293.3 nm
- Particle Size ([4]; charge ratio (+/−) 3.0): 3946.4 nm
- Particle Size ([4]; charge ratio (+/−) 4.0): 4304.7 nm

Compound: CCN(CCCNCCCNCN(CC)C(=O)CN)C(=O)CN [CGP 61750A]
- Zeta Potential ([3]; charge ratio (+/−) 0.5): −47.3
- Zeta Potential ([3]; charge ratio (+/−) 1.0): −30
- Zeta Potential ([3]; charge ratio (+/−) 1.5): −25
- Zeta Potential ([3]; charge ratio (+/−) 2.0): −17.1
- Zeta Potential ([3]; charge ratio (+/−) 3.0): −11.7
- Zeta Potential ([3]; charge ratio (+/−) 4.0): −9.78
- Particle Size ([4]; charge ratio (+/−) 0.5): 176.7 nm
- Particle Size ([4]; charge ratio (+/−) 1.0): 77.6 nm
- Particle Size ([4]; charge ratio (+/−) 1.5): 90.3 nm
- Particle Size ([4]; charge ratio (+/−) 2.0): 206.8 nm
- Particle Size ([4]; charge ratio (+/−) 3.0): 1941.8 nm
- Particle Size ([4]; charge ratio (+/−) 4.0): 2526.8 nm

Compound: KKK KKK KKK KKK KKA TDC RGE CF [MST]
- expression, effect of peptide ligand [5]: not observed

Compound: KKK KKK KKK KKK KKA d-FCY d-WKT CT [SMT]
- expression, effect of peptide ligand [5]: increased expression
